Laboratory results published in publication PMC6588697, “Lugdunin amplifies innate immune responses in the skin in synergy with host- and microbiota-derived factors” (Nature Communications, 2019).
“And” between values parts separate entries of the source, which are not always exact repeats. Equal entries are not always repeated.

Tested on: mouse skin
Test: Immune cell composition of mouse skin after epicutaneous treatment (flow cytometry)
Type: in vivo, C57BL/6 WT, MyD88-ko, 5xTLR-ko mice
Details: for percentage of monocytes (Ly6C+Ly6G−) of CD11b+CD45+ live cells / percentage of neutrophils (Ly6C+Ly6G+) of CD11b+CD45+ live cells: Fig 3d
Experimental: Fig. 3 Epicutaneous lugdunin recruits phagocytic cells. a Schematic overview of the mouse experiments: 6–8-week-old female C5BL/6 wild-type (WT), MyD88-ko, or 5xTLR-ko mice were epicutaneously treated with 1.5 µg lugdunin or phosphate-buffered saline (PBS) as a control. After 24 h, mice were euthanized, immune cells were isolated from treated skin areas, and immune cell composition was analyzed by flow cytometry. b Shown is the mean percentage of CD45+ live cells in mouse skin of 10 C57BL/6 WT mice ± s.e.m. One mouse is represented as two dots analyzed by two different stainings. c Pie charts show the mean percentage of the different immune cell subsets in the skin of 10 WT mice after 24 h of PBS or lugdunin treatment. d Shown are representative flow cytometry data (left panel) and the mean percentage of neutrophils (Ly6C+Ly6G+) and monocytes (Ly6C+Ly6G−) pregated on CD11b+CD45+ live cells (see Supplementary Fig. 3a, f for the gating strategy) in mouse skin ± s.e.m. One dot represents one mouse. *P < 0.05. e Representative myeloperoxidase (MPO)-stained paraffin-embedded mouse skin sections. Scale bar, 100 µM. Source data are provided as a Source Data file TEXT PRINTED IN THE PICTURE: (c) PBS: NK cells: 21%; B cells: 0%; T cells: 10%; Dendritic cells: 8%; CD11b+ cells: 43%; Others: 18%; Macrophages: 73%; Monocytes: 15%; Neutrophils: 3%; Others: 9% | (c) Lugdunin: NK cells: 18%; B cells: 0%; T cells: 11%; Dendritic cells: 10%; CD11b+ cells: 45%; Others: 16%; Macrophages: 64%; Monocytes: 21%; Neutrophils: 6%; Others: 9% | (d) PBS: Monocytes 13,3 (WT); Neutrophils 2,51 (WT); Q4 83,6 (WT); Q3 0,53 (WT); Monocytes 2,34 (MyD88-ko); Neutrophils 0,95 (MyD88-ko); Q4 94,4 (MyD88-ko); Q3 2,27 (MyD88-ko); Monocytes 12,8 (5xTLR-ko); Neutrophils 0,88 (5xTLR-ko); Q4 85,0 (5xTLR-ko); Q3 1,32 (5xTLR-ko) | (d) Lugdunin: Monocytes 17,3 (WT); Neutrophils 11,1 (WT); Q4 70,6 (WT); Q3 0,99 (WT); Monocytes 3,14 (MyD88-ko); Neutrophils 0,54 (MyD88-ko); Q4 94,9 (MyD88-ko); Q3 1,41 (MyD88-ko); Monocytes 12,9 (5xTLR-ko); Neutrophils 1,74 (5xTLR-ko); Q4 84,3 (5xTLR-ko); Q3 1,06 (5xTLR-ko) DOUBTS OF THE COPYIST ABOUT THIS PICTURE: Panel c: the percentages are printed on the pie slices without cell-type names. They were matched to cell types only by the colour legend, so the match is not certain, especially among the blue shades of the lower pies. / PBS is the vehicle control, not a test substance. Its values are given because they are printed under that name. / Panel d: the quadrant numbers are in very small print, so 3, 5, 6, 8 and 9 cannot be told apart with certainty. / PBS WT, Monocytes 13,3: either 3 could be 8 / PBS WT, Neutrophils 2,51: 5 could be 6 / PBS WT, Q4 83,6: 8, 3 and 6 uncertain / PBS WT, Q3 0,53: 5 and 3 uncertain / PBS MyD88-ko, Monocytes 2,34: 3 could be 8 / PBS MyD88-ko, Neutrophils 0,95: 9 and 5 uncertain / PBS MyD88-ko, Q4 94,4: 9 uncertain / PBS 5xTLR-ko, Monocytes 12,8: 8 could be 3 / PBS 5xTLR-ko, Neutrophils 0,88: either 8 uncertain / PBS 5xTLR-ko, Q4 85,0: 8 and 5 uncertain / PBS 5xTLR-ko, Q3 1,32: 3 could be 8 / Lugdunin WT, Monocytes 17,3: 3 could be 8 / Lugdunin WT, Q4 70,6: 6 could be 8 / Lugdunin WT, Q3 0,99: either 9 uncertain / Lugdunin MyD88-ko, Monocytes 3,14: 3 could be 8 / Lugdunin MyD88-ko, Neutrophils 0,54: 5 could be 6 / Lugdunin MyD88-ko, Q4 94,9: either 9 uncertain / Lugdunin 5xTLR-ko, Monocytes 12,9: 9 could be 8 / Lugdunin 5xTLR-ko, Q4 84,3: 8 and 3 uncertain / Lugdunin 5xTLR-ko, Q3 1,06: 6 could be 8
To analyze the immune cell composition and cytokines in the skin, 15 µL containing 1.5 μg lugdunin or PBS as a control were epicutaneously applied for 24 h on the shaved back skin of C57BL/6 WT/MYD88-ko/5xTLR-ko mice. After 24 h, mice were euthanized and relevant skin areas or 4 mm skin punches were removed for immune cell analysis and LEGENDplex^TM (BioLegend) cytokine analysis. […]

[1] = 5xTLR-ko mice, 1.5 µg lugdunin 24 h, one value per mouse
[2] = MyD88-ko mice, 1.5 µg lugdunin 24 h, one value per mouse
[3] = WT mice, 1.5 µg lugdunin 24 h, one value per mouse

Lugdunin
percentage of monocytes (Ly6C+Ly6G−) of CD11b+CD45+ live cells [1]: completely impaired and 20.3% and 17.1% and 9.43% and 21.4% and 16.9% and 6.11% and 12.9% | percentage of neutrophils (Ly6C+Ly6G+) of CD11b+CD45+ live cells [1]: completely impaired and 5.72% and 2.72% and 4.06% and 8.41% and 1.29% and 0.57% and 1.74% | percentage of CD45+ live cells in mouse skin (10 WT mice, 1.5 µg lugdunin epicutaneous 24 h, each mouse two values (two stainings), Fig 3b): 14.9% and 13.5% and 14.7% and 11.7% and 14.6% and 11.5% and 13.9% and 11.3% and 13.1% and 10.2% and 12.2% and 10.7% and 12.3% and 10.1% and 6.9% and 8.55% | percentage of monocytes (Ly6C+Ly6G−) of CD11b+CD45+ live cells [2]: completely impaired and 8.96% and 15.5% and 8.8% and 15.6% and 3.14% and 1.49% and 4.64% and 1.54% | percentage of neutrophils (Ly6C+Ly6G+) of CD11b+CD45+ live cells [2]: completely impaired and 2.26% and 5.17% and 2.81% and 2.01% and 0.54% and 0.23% and 0.5% and 0.44% | percentage of monocytes (Ly6C+Ly6G−) of CD11b+CD45+ live cells [3]: significantly enhanced recruitment and 15.8% and 17.3% and 13.3% and 8.16% and 21.5% and 17.9% and 10.5% and 16.5% and 16% and 7.28% | percentage of neutrophils (Ly6C+Ly6G+) of CD11b+CD45+ live cells [3]: significantly enhanced recruitment and 2.57% and 6.43% and 4.87% and 2.11% and 8.34% and 11.1% and 2.51% and 1.25% and 4.02% and 5.05% | NK cells, % NK1.1+ cells of live CD45+ cells (WT mice, 1.5 µg lugdunin 24 h, one value per mouse, Supp Fig 3b): 17.7% and 16.5% and 19.9% and 14.6% and 15.5% and 15.6% and 22.8% and 24.4% and 19.7% and 17.2% | B cells, % CD19+ cells of live CD45+ cells (WT mice, 1.5 µg lugdunin 24 h, one value per mouse, Supp Fig 3c): 0% and 0.14% and 0.15% and 0.03% and 0.04% and 0.05% and 0.01% and 0.02% | Dendritic cells, % CD11c+ cells of live CD45+ cells (WT mice, 1.5 µg lugdunin 24 h, one value per mouse, Supp Fig 3e): 16.5% and 7.96% and 9.38% and 7.83% and 7.66% and 8.63% and 12.4% and 7.01% and 13.5% and 11.2% | CD11b+ cells, % of live CD45+ cells (WT mice, 1.5 µg lugdunin 24 h, one value per mouse, Supp Fig 3f): 25.3% and 49.5% and 44.6% and 53.3% and 45% and 48.5% and 39.3% and 50.8% and 43.6% | Macrophages, % F4/80+ cells of CD11b+ CD45+ live cells (WT mice, 1.5 µg lugdunin 24 h, one value per mouse, Supp Fig 3g): slightly reduced and 61.4% and 62.3% and 69.6% and 70.5% and 63.1% and 61.1% and 64.2% and 53.1% and 77.9% | T cells, % CD3+ cells of live CD45+ cells (WT mice, 1.5 µg lugdunin 24 h, one value per mouse, Supp Fig 3d): 14.9% and 10.6% and 8% and 7.67% and 10.1% and 12.6% and 9.79% and 11.5% and 8.32% and 13.4%
